Each compound was assayed against human CCR2 (Homo sapiens, UniProt P41597) (assay: CCR2 functional calcium assay (FLIPR calcium flux, hMCP-1 challenge)). Settings: HEK293 EBNA cells transfected with human CCR2, hMCP-1 challenge; read-out: Functional CCR2 fKi.
Type: cell-based
Design: expressed in transfected cells; host or cells: HEK293 EBNA cells
Text: The CCR2 receptor couples through the Gi/Gq signaling pathway and results in activation of calcium mobilization. The functional activity of test compounds was routinely tested by measuring the ability of compounds to antagonize CCR2 activity in a dose dependent manner, in HEK293 EBNA cells transfected with the human CCR2 receptor (hMCP-1 challenge), using a calcium flux Fluorescent Imaging Plate Reader FLIPR assay. Non-transfected HEK293 EBNA cells were used as control of non-specific response.
Briefly, test compounds were dissolved in dimethyl sulfoxide (DMSO) to a concentration of 10 mM and stored in matrix screenmate racks. The required amount of compound was transferred to 96-well compound plates on the day of assay and diluted in assay buffer to the required final concentration; dose-response measurements were assayed by making 1:3 serial dilutions to produce 10 point curves. The compounds were then transferred to 384-well assay plates ready for use. Top concentrations were adjusted depending on the potency of the compounds with a typical concentration range of 30 μM to 0.5 nM being used. The assay buffer used was HBSS buffer supplemented with 20 mM HEPES and 0.1% BSA, pH7.4. The loading/wash buffers were the same as the assay buffer.
Cells were suspended in culture medium at a density of 10000 cells/50 μl (the cell culture media composition was DMEM high glucose supplemented with 10% dialyzed FBS, 250 μg/ml Geneticin, and 400 μg/ml Hygromycin B), transferred to 384-well black/clear Costar plates (Costar #3712) (50 μl/well) and incubated at 37° C., in a 5% CO2/95% air humidified incubator for 16 h. The cells were washed with assay buffer at 37° C. using the Biotek ELx 405, washing 3 times, leaving 20 μl buffer in the well. 20 μl Fluo-4 (Fluo-4 stock solution (1 mM) was prepared by dissolving one vial of Fluo-4 (50 μg) in 45 μl of pluronic acid (240 mg/ml in DMSO). This stock solution of Fluo-4 was then diluted 250 times with loading buffer to give a Fluo-4 concentration of 4 μM. The dye solution (used within 2 h and kept away from light) was added to each well using a repeating multichannel pipette; the cells were then incubated at 37° C. for 60 min. Following the incubation, cells were washed in assay buffer at 37° C. using the Biotek ELx 405, washing 3 times, leaving 40 μl in each well and incubated for 10 min at 37° C. before use. A combined agonist/antagonist protocol was used. Compound (antagonist) was added to the cell plate using the FLIPR. Basal fluorescence was recorded every second for 10 seconds prior to compound addition (10 μl) and fluorescence recorded every second for 1 minute then every 6 seconds for a further 1 minute. Agonist (MCP-1) was then added using the FLIPR and fluorescence recorded as described above.
The positive control (agonist) was human recombinant MCP-1 which was stored as a stock concentration of 10 μM in distilled water and stored at −20° C. (maximal response: 30 nM; EC50 dose: 3-5 nM). The reference compound (antagonist) was RS102895 which was used as a 10 mM DMSO solution and stored at −20° C.
FLIPR responses were measured as peak minus basal fluorescence intensity and were expressed as a percentage of EC50 MCP-1 challenge. Curve-fitting and parameter estimation were carried out using GraphPad Prism 4.0 (GraphPad Software Inc., San Diego, Calif.).

Chain of human CCR2 (P41597 whole entry): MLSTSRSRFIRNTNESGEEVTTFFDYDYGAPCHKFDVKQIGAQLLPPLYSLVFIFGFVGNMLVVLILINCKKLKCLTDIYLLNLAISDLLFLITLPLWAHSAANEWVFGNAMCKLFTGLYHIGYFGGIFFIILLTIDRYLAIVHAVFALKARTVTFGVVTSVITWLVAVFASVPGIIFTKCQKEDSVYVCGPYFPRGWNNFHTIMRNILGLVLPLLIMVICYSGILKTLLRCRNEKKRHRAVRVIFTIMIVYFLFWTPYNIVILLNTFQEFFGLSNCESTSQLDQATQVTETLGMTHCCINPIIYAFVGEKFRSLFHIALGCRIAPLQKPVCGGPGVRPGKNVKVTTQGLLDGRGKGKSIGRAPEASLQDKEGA

Row | Ki [nM] | SMILES
1 | < 10 | CC(C)OC(=O)c1nc2ccnn2c(O)c1Cc1cccc(Cl)c1 [Example 82, Propan-2-yl 6-[(3-chlorophenyl)methyl]-7-hydroxypyrazolo[1,5-a]pyrimidine-5-carboxylate]
2 | < 10 | COC(=O)c1nc2ccnn2c(O)c1Cc1ccc(Cl)c(Cl)c1 [Example 83, Methyl 6-[(3,4-dichlorophenyl)methyl]-7-hydroxypyrazolo[1,5-a]pyrimidine-5-carboxylate]
3 | < 10 | CC(C)OC(=O)c1nc2ccnn2c(O)c1Cc1ccc(Cl)c(Cl)c1 [Example 84, Propan-2-yl 6-[(3,4-dichlorophenyl)-methyl]-7-hydroxy pyrazolo[1,5-a]-pyrimidine-5-carboxylate]
4 | 100 to 1000 | O=C(O)c1nc2ccnn2c(O)c1Cc1cccc(Cl)c1 [Example 85, 6-[(3-Chlorophenyl)methyl]-7-hydroxypyrazolo[1,5-a]pyrimidine-5-carboxylic acid]
5 | 10 to 100 | CC(C)OC(=O)c1nc2ccnn2c(O)c1Cc1cccc(C(F)(F)F)c1 [Example 86, Propan-2-yl7-hydroxy-6-{[3-(trifluoromethyl)phenyl]methyl}pyrazolo[1,5-a]pyrimidine-5-carboxylate]
6 | < 10 | CC(C)OC(=O)c1nc2ccnn2c(O)c1Cc1ccc(F)c(Cl)c1 [Example 87, Propan-2-yl6-[(3-chloro-4-fluorophenyl)methyl]-7-hydroxypyrazolo[1,5-a]pyrimidine-5-carboxylate]
7 | < 10 | CC(C)OC(=O)c1nc2ccnn2c(O)c1Cc1ccc(Cl)c(F)c1 [Example 88, Propan-2-yl6-[(4-chloro-3-fluorophenyl)methyl]-7-hydroxypyrazolo[1,5-a]pyrimidine-5-carboxylate]
8 | < 10 | COC(=O)c1nc2ccnn2c(O)c1Oc1ccc(Cl)c(Cl)c1 [Example 89, Methyl 6-(3,4-dichlorophenoxy)-7-hydroxypyrazolo[1,5-a]pyrimidine-5-carboxylate]
9 | 100 to 1000 | OCc1nc2ccnn2c(O)c1Cc1ccc(Cl)cc1 [Example 90, 6-[(4-Chlorophenyl)methyl]-5-(hydroxymethyl)pyrazolo[1,5-a]pyrimidin-7-ol]
10 | 100 to 1000 | Oc1c(Cc2ccc(Cl)cc2)c(CN2CCOCC2)nc2ccnn12 [Example 91, 6-[(4-Chlorophenyl)methyl]-5-(morpholin-4-ylmethyl)pyrazolo[1,5-a]pyrimidin-7-ol]
11 | 100 to 1000 | Cc1noc(-c2nc3ccnn3c(O)c2Cc2cccc(F)c2)n1 [Example 92, 6-[(3-Fluorophenyl)methyl]-5-(3-methyl-1,2,4-oxadiazol-5-yl)pyrazolo[1,5-a]pyrimidin-7-ol]
12 | 100 to 1000 | CC(C)(O)c1nc2ccnn2c(O)c1Cc1cccc(F)c1 [Example 93, 6-[(3-Fluorophenyl)methyl]-5-(2-hydroxypropan-2-yl)pyrazolo[1,5-a]pyrimidin-7-ol]
13 | 10 to 100 | CC(=O)c1nc2ccnn2c(O)c1Cc1cccc(F)c1 [Example 94, 1-{6-[(3-Fluorophenyl)methyl]-7-hydroxypyrazolo[1,5-a]pyrimidin-5-yl}ethan-1-one]
14 | 100 to 1000 | CC(O)c1nc2ccnn2c(O)c1Cc1cccc(F)c1 (centres unmarked) [Example 95, 6-[(3-Fluorophenyl)methyl]-5-(1-hydroxyethyl)pyrazolo[1,5-a]pyrimidin-7-ol]
15 | 10 to 100 | CC(=O)c1nc2ccnn2c(O)c1Cc1ccc(Cl)c(Cl)c1 [Example 96, 1-{6-[(3,4-Dichlorophenyl)methyl]-7-hydroxypyrazolo[1,5-a]pyrimidin-5-yl}ethan-1-one]
16 | 10 to 100 | CCC(=O)c1nc2ccnn2c(O)c1Cc1ccc(Cl)c(Cl)c1 [Example 97, 1-{6-[(3,4-Dichlorophenyl)methyl]-7-hydroxypyrazolo[1,5-a]pyrimidin-5-yl}propan-1-one]
17 | 100 to 1000 | Cc1noc(Cc2nc3ccnn3c(O)c2Cc2ccc(Cl)cc2)n1 [Example 98, 6-[(4-Chlorophenyl)methyl]-5-[(3-methyl-1,2,4-oxadiazol-5-yl)methyl]pyrazolo[1,5-a]-pyrimidin-7-ol]
18 | 100 to 1000 | CNC(=O)c1cnn2c(O)c(Cc3ccc(Cl)cc3)c(C)nc12 [Example 99, 6-[(4-Chlorophenyl)methyl]-7-hydroxy-N,5-dimethylpyrazolo[1,5-a]pyrimidine-3-carboxamide]
19 | 100 to 1000 | Cc1nc2c(C(=O)N(C)C)cnn2c(O)c1Cc1ccc(Cl)cc1 [Example 100, 6-[(4-Chlorophenyl)methyl]-7-hydroxy-N,N,5-trimethylpyrazolo[1,5-a]pyrimidine-3-carboxamide]
20 | 100 to 1000 | Cc1nc2c(C(=O)NC[C@H]3CCCO3)cnn2c(O)c1Cc1ccc(Cl)cc1 [Example 101, 6-[(4-Chlorophenyl)methyl]-7-hydroxy-5-methyl-N-[(2R)-oxolan-2-ylmethyl]-pyrazolo[1,5-a]pyrimidine-3-carboxamide]
21 | 100 to 1000 | COCCNC(=O)c1cnn2c(O)c(Cc3ccc(C)cc3)c(C)nc12 [Example 102, 7-Hydroxy-N-(2-methoxyethyl)-5-methyl-6-[(4-methylphenyl)methyl]pyrazolo[1,5-a]pyrimidine-3-carboxamide]
22 | 100 to 1000 | Cc1nc2c(C(=O)NCCOc3ccccc3)cnn2c(O)c1Cc1ccccc1 [Example 103, 6-Benzyl-7-hydroxy-5-methyl-N-(2-phenoxyethyl)pyrazolo[1,5-a]pyrimidine-3-carboxamide]
23 | 100 to 1000 | Cc1nc2c(C(=O)N3CCN(C)CC3)cnn2c(O)c1Cc1ccc(Cl)cc1 [Example 104, 6-[(4-Chlorophenyl)methyl]-5-methyl-3-[(4-methylpiperazin-1-yl)carbonyl]pyrazolo [1,5-a]pyrimidin-7-ol]
24 | 100 to 1000 | Cc1nc2c(C(=O)NCCc3ccccc3)cnn2c(O)c1Cc1ccc(Cl)cc1 [Example 105, 6-[(4-Chlorophenyl)methyl]-7-hydroxy-5-methyl-N-(2-phenylethyl)pyrazolo[1,5-a]pyrimidine-3-carboxamide]
25 | 100 to 1000 | C=CCNC(=O)c1cnn2c(O)c(Cc3ccc(Cl)cc3)c(C)nc12 [Example 106, 6-[(4-Chlorophenyl)methyl]-7-hydroxy-5-methyl-N-(prop-2-en-1-yl)pyrazolo[1,5-a]-pyrimidine-3-carboxamide]
26 | 10 to 100 | COCCNC(=O)c1cnn2c(O)c(Cc3ccc(Cl)cc3)c(C)nc12 [Example 107, 6-[(4-Chlorophenyl)methyl]-7-hydroxy-N-(2-methoxyethyl)-5-methylpyrazolo[1,5-a]-pyrimidine-3-carboxamide]
27 | 100 to 1000 | CSCCNC(=O)c1cnn2c(O)c(Cc3ccc(Cl)cc3)c(C)nc12 [Example 108, 6-[(4-Chlorophenyl)methyl]-7-hydroxy-5-methyl-N-[2-(methylsulfanyl)ethyl] pyrazolo[1,5-a]pyrimidine-3-carboxamide]
28 | 100 to 1000 | Cc1nc2c(C(=O)N(C)CCC#N)cnn2c(O)c1Cc1ccc(Cl)cc1 [Example 109, 6-[(4-Chlorophenyl)methyl]-N-(2-cyanoethyl)-7-hydroxy-N,5-dimethylpyrazolo[1,5-a] pyrimidine-3-carboxamide]
29 | 100 to 1000 | Cc1ccc(Cc2c(C)nc3c(C(=O)NCCc4ccccn4)cnn3c2O)cc1 [Example 111, 7-Hydroxy-5-methyl-6-[(4-methylphenyl)-methyl]-N-[2-(pyridin-2-yl)ethyl]pyrazolo-[1,5-a]pyrimidine-3-carboxamide]
